According to PubChem BioAssay (NCI):
Several values for one entry are separate records, joined by “and”; a condition that tells them apart may be missing. Equal entries are not always repeated.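 Five compound concentrations were applied to cells in 96-well plates for 48 hours; endpoints were derived by simple linear interpolation of the resulting dose-response curve. The concentration for 50% growth inhibition is given as GI50. The concentration for full growth arrest is given as TGI.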

Experiments:
Experiment in all cases: DTP human tumour cell line panel, 48 h
[1] = system: NCI-H226 lung
[2] = system: SK-MEL-2 melanoma
[3] = system: A549 NSCLC
[4] = system: SN12C renal
[5] = system: K-562 leukemia
[6] = system: 786-0 renal
[7] = system: HOP-92 NSCLC
[8] = system: HOP-62 NSCLC
[9] = system: EKVX NSCLC
[10] = system: MDA-MB-435
[11] = system: RPMI-8226 leukemia

Row | SMILES | TGI [1] | TGI [2] | TGI [3] | TGI [4] | TGI [5] | TGI [6] | TGI [7] | TGI [8] | TGI [9] | TGI [10] | TGI [11] | GI50 [2] | GI50 [7] | GI50 [9] | GI50 [10] | GI50 [4]
1 | COC(=O)/C1=C/C=C\C[C@@]2(C)CC(c3ccoc3)OC(=O)[C@@H]2CC[C@H]1C (stereo partly specified) | > 25 µM | > 25 µM | > 25 µM | > 25 µM | > 25 µM | > 25 µM | > 25 µM | > 25 µM | > 25 µM | – | – | – | – | – | – | –
2 | O/N=C1\C/C(=N\O)c2c(Br)sc(Br)c21 | > 100 µM | > 100 µM | > 100 µM | > 100 µM | > 100 µM | > 100 µM | > 100 µM | > 100 µM | > 100 µM | > 100 µM | – | – | – | – | – | –
3 | CC(C)OC1=C(CC2(C)OCCO2)C(=O)C12OCCO2 | > 100 µM | > 100 µM | > 100 µM | > 100 µM | – | > 100 µM | > 100 µM | > 100 µM | > 100 µM | > 100 µM | – | – | – | – | – | –
4 | Cc1cn(C2CC(O)C(Cn3nncc3Cn3nc(Br)c(=O)[nH]c3=O)O2)c(=O)[nH]c1=O (stereo unspecified) | > 100 µM | > 100 µM | > 100 µM | > 100 µM | – | > 100 µM | > 100 µM | > 100 µM | > 100 µM | > 100 µM | > 100 µM | – | – | – | – | –
5 | O=c1c(O)c(-c2ccccc2)oc2c(CP(=O)(O)O)cccc12 | – | > 100 µM | > 100 µM | > 100 µM | > 100 µM | > 100 µM | – | > 100 µM | > 100 µM | > 100 µM | – | – | – | – | – | –
6 | N#Cc1ccc(-c2ccc(Cl)cc2)n(C2OC(CO)C(O)C(O)C2O)c1=S (stereo unspecified) | > 100 µM | > 100 µM and 52.5 µM | > 100 µM | > 100 µM | > 100 µM | > 100 µM | > 100 µM and 51.5 µM | > 100 µM and 36.3 µM | > 100 µM | – | > 100 µM | > 100 µM and 10.6 µM | > 100 µM and 14.6 µM | > 100 µM and 33.7 µM | – | –
7 | O=C(O)c1cc(NCc2cc(O)ccc2O)ccc1O | > 100 µM | > 100 µM | > 100 µM | > 100 µM | – | > 100 µM | > 100 µM | > 100 µM | > 100 µM | > 100 µM | – | – | – | – | – | –
8 | Cc1cc(C)[n+]2c(c1)C=CC2 | 60.8 µM | 93.8 µM | > 100 µM | > 100 µM | – | > 100 µM | > 100 µM | > 100 µM | > 100 µM | – | – | – | – | – | – | –
9 | CCOC(=O)c1sc2nc(SC)nc3c2c1NCN3C | > 100 µM | > 100 µM | > 100 µM | > 100 µM | – | 47.3 µM | 27.9 µM | 47.2 µM | – | > 100 µM | > 100 µM | – | – | – | – | –
10 | O=c1oc2ccccc2c(O)c1C(c1ccc(OCc2ccccc2)cc1)c1c(O)c2ccccc2oc1=O | > 100 µM | > 100 µM | > 100 µM | > 100 µM | – | > 100 µM | 91.6 µM | > 100 µM | > 100 µM | > 100 µM | > 100 µM | – | – | – | – | –
11 | CCOc1ccc2c(c1)C(/C(C(Cl)=C(Cl)Cl)=[N+](/[O-])OC(=O)c1ccccc1)=N2 | > 100 µM | > 100 µM | > 100 µM | > 100 µM | > 100 µM | > 100 µM | > 100 µM | > 100 µM | > 100 µM | > 100 µM | – | – | – | – | – | –
12 | Clc1ccc(C2SCc3nc4ccccc4n32)cc1 (stereo unspecified) | 75.4 µM | 33 µM | – | 42.7 µM | > 100 µM | – | 22.3 µM | – | > 100 µM | – | 44.1 µM | – | – | – | – | –
13 | Cc1ccc(/C=c2\c(=O)[nH]c3nc4ccccc4c(=O)n23)cc1 | – | > 100 µM | > 100 µM | > 100 µM | – | > 100 µM | > 100 µM | > 100 µM | – | 60.5 µM | > 100 µM | – | – | – | – | –
14 | CC1(C)CCC2=C(O1)c1ccccc1C(=Nc1ccc([N+](=O)[O-])cc1)C2=O | 25.3 µM | 32.8 µM | 30 µM | 29.3 µM | > 100 µM | 34.1 µM | > 100 µM | 34.1 µM | 32.7 µM | 29.2 µM | – | – | – | – | 15.8 µM | 15.9 µM
15 | OCc1ccc2c(c1)CC1(Cc3ccccc3C1)C2 | > 100 µM | – | 71.2 µM | 45.8 µM | 38.1 µM | 29.6 µM | 38 µM | > 100 µM | 80.2 µM | – | 46.4 µM | – | – | – | – | –
